Reference: US20100222360A1, “Treatment of Malignant Peripheral Nerve Sheath Tumors” (priority 2008, published 2010)

Tested on: MPNST cell line, YST-1
Test: Proliferation of the MPNST cell line YST-1
Assay type: cell-based

O=C1c2ccccc2-c2n[nH]c3cccc1c23 [SP600125]
effect on the suppression of cell proliferation effected by Imatinib (SP600125 in combination with Imatinib, YST-1 cells): reinforces the suppression of cell proliferation | suppression of proliferation of the MPNST cell line YST-1 (single agent, concentration-dependent manner): suppresses the proliferation
